Experimental data: ChEMBL document CHEMBL1131542, “A potent dipeptide inhibitor of dipeptidyl peptidase IV” (Bioorg Med Chem Lett, 1998)
Square brackets hold non-standard residues; d marks the D form. Peptide text beside a SMILES is read from it. Tic = O=C(O)[C@@H]1Cc2ccccc2CN1

Assays:
[1] = biological target: T1, Dipeptidyl peptidase 4 (Homo sapiens, UniProt P27487); experiment: Inhibitory concentration against Dipeptidyl peptidase IV (DPP IV)
Target sequence in this assay (P27487 whole entry): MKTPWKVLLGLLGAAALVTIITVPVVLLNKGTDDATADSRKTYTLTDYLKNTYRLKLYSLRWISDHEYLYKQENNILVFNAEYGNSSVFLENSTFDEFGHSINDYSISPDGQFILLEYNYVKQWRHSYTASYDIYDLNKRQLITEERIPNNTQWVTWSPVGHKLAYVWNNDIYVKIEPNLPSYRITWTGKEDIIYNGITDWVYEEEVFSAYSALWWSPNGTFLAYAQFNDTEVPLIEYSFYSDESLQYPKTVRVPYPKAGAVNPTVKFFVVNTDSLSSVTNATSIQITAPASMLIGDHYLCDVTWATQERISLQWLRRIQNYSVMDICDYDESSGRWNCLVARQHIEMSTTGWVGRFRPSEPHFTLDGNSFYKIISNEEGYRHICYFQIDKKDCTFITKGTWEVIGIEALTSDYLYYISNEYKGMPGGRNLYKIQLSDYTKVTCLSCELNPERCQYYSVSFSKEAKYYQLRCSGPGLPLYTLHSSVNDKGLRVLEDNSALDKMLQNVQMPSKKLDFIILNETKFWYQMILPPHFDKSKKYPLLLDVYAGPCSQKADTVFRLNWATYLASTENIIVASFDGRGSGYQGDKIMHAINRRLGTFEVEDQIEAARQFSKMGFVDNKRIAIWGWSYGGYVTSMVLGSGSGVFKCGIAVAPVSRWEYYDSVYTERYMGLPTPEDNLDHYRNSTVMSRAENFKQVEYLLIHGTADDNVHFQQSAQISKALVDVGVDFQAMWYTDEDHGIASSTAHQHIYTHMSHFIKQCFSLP

[2] = biological target: T1, Dipeptidyl peptidase 4; experiment: Percent inhibition of Dipeptidyl peptidase IV (DPP IV) at a concentration of 10 uM
Target sequence in this assay (P27487 whole entry, looked up): as the sequence (P27487 whole entry) above

[3] = biological target: T1, Dipeptidyl peptidase 4; experiment: Percent inhibition against Dipeptidylpeptidase IV (DPP IV) at a concentration of 10 uM
Target sequence in this assay (P27487 whole entry, looked up): as the sequence (P27487 whole entry) above

[4] = biological target: T1, Dipeptidyl peptidase 4; experiment: Percent inhibition against Dipeptidyl peptidase IV (DPP IV) at a concentration of 1 uM
Target sequence in this assay (P27487 whole entry, looked up): as the sequence (P27487 whole entry) above

Compound	IC50 [1] [µM]	inhibition [2] [%]	inhibition [3] [%]	inhibition [4] [%]
N[C@@H](Cc1c[nH]c2ccccc12)C(=O)N1Cc2ccccc2C[C@H]1C(=O)N[C@@H](CO)C(=O)O (H-Trp-[Tic]-Ser-OH)	7.9	53		
COc1c(O)cc2c(c1O)CN(C(=O)[C@@H](N)Cc1c[nH]c3ccccc13)[C@H](C(=O)N[C@@H](CC(CO)CO)C(=O)O)C2			7.7	
N[C@@H](Cc1c[nH]c2ccccc12)C(=O)N1Cc2ccccc2C[C@H]1C(=O)N[C@@H](CCC(=O)O)C(=O)O (H-Trp-[Tic]-Glu-OH)	7	62		
CC[C@H](C)[C@H](NC(=O)[C@H](Cc1c[nH]cn1)NC(=O)CNC(=O)[C@H](CCC(=O)O)NC(=O)[C@H](CCC(N)=O)NC(=O)[C@H](CC(=O)O)NC(=O)[C@H](CC(N)=O)NC(=O)[C@H](CCCN=C(N)N)NC(=O)[C@H](C)NC(=O)[C@@H]1Cc2ccccc2CN1C(=O)[C@@H](N)CC(C)C)C(=O)N[C@@H](CC(C)C)C(=O)N[C@@H](CCCCN)C(=O)N[C@@H](CCSC)C(=O)N[C@@H](Cc1ccccc1)C(=O)N1CCC[C@H]1C(=O)N[C@@H](CO)C(=O)N[C@H](C(=O)N[C@@H](Cc1c[nH]c2ccccc12)C(=O)N[C@@H](Cc1ccc(O)cc1)C(=O)N[C@H](C(=O)O)C(C)C)[C@@H](C)O (H-L[Tic]ARNDQEGHILKMFPSTWYV-OH)				7
N[C@@H](Cc1c[nH]c2ccccc12)C(=O)N1Cc2ccccc2C[C@H]1C(=O)O (H-Trp-[Tic]-OH)	5.7	59		
CC[C@H](C)[C@H](NC(=O)[C@H](Cc1c[nH]cn1)NC(=O)CNC(=O)[C@H](CCC(=O)O)NC(=O)[C@H](CCC(N)=O)NC(=O)[C@H](CC(=O)O)NC(=O)[C@H](CC(N)=O)NC(=O)[C@H](CCCN=C(N)N)NC(=O)[C@H](C)NC(=O)[C@@H]1Cc2ccccc2CN1C(=O)[C@@H](N)CO)C(=O)N[C@@H](CC(C)C)C(=O)N[C@@H](CCCCN)C(=O)N[C@@H](CCSC)C(=O)N[C@@H](Cc1ccccc1)C(=O)N1CCC[C@H]1C(=O)N[C@@H](CO)C(=O)N[C@H](C(=O)N[C@@H](Cc1c[nH]c2ccccc12)C(=O)N[C@@H](Cc1ccc(O)cc1)C(=O)N[C@H](C(=O)O)C(C)C)[C@@H](C)O (H-S[Tic]ARNDQEGHILKMFPSTWYV-OH)				10
